In US9763992B2, “Treatment of noise induced hearing loss” (Father Flanagan's Boys' Home, priority 2014, dated 2017):

What was measured:
[1] = tested on: noise-induced hearing loss (NIHL) in CBA mice; assay: DPOAE input-output curves (outer hair cell function) after noise exposure in mice; type: in vivo; conditions: one GA-treated mouse relative to saline-treated; 14 days following noise exposure; f2=11.3 kHz; FIG. 4
Method: (§1) To determine if the glatiramer acetate (GA) prevents or reduces hearing loss in mice following exposure to traumatizing noise, following determination of baseline acoustic thresholds (i.e., pre-noise exposure thresholds), hearing sensitivity and input-output relationships was assessed during the post-noise exposure period using auditory evoked brainstem responses (ABRs) and distortion product otoacoustic emissions (DPOAEs); DPOAEs were studied using the same protocol as in ABR-based studies to separate findings associated with neural and sensory outcomes. Responses to tone burst stimuli was acquired immediately following noise exposure, daily during the early post-exposure period, and intermittently thereafter for six (6) months to generally assess the long-term outcome of exposure to traumatizing noise in CBA mice. Morphological correlates of final treatment outcomes, including sensory and support cell (cytocochleograms), synapses between hair cells and spiral ganglion dendrites, and SGN survival estimates, was made at the end of the acute phase (2 months following noise exposure) or at 6 months to assess long-term outcomes.
The traumatizing noise used in CBA mouse studies was an octave band of white noise centered on 11.3 kHz and was presented at 109 dB SPL for 30 min. […]

IL-4 = assay: qRT-PCR cytokine expression after noise exposure: IL-4; type: in vivo, mouse; conditions: GA-treated mice, 10 days following noise exposure (Group 1), spleen tissues, FIG. 6
Method: (§2) To determine if GA affects cytokine expression, groups of mice received GA as described above, and cytokine expression was evaluated via RT-PCR. […]

TNF-alpha = assay: qRT-PCR cytokine expression after noise exposure: TNF-alpha; type: in vivo, mouse; conditions: GA-treated mice, 10 days following noise exposure (Group 1), FIG. 7
Method: (§3) To determine if GA affects cytokine expression, groups of mice received GA as described above, and cytokine expression was evaluated via RT-PCR.
(§4) Using RT-PCR, the effects of GA on cytokine expression in the cochlea, specifically those mediators associated with pro- or anti-inflammatory activity, was established.

[2] = tested on: noise-induced hearing loss (NIHL) in CBA mice; assay: ABR threshold recovery after traumatizing noise exposure in mice; type: in vivo, mouse
Method: as §1
The traumatizing noise used in CBA mouse studies was an octave band of white noise centered on 11.3 kHz and was presented at 109 dB SPL for 30 min. Because of well-documented differences in the abilities of males and females to mount inflammatory responses, both males and females were included in this investigation.
In mice, GA (100 mg/kg) was administered following two treatment strategies. In Group 1, GA was administered in sequential doses one month and one week prior to noise exposure (the “protection” approach), with supplementary doses on a daily basis for the first 4 days following noise exposure and again on the 7th and 14th post-exposure days in mice, to determine if GA can prevent permanent hearing loss associated with traumatizing noise. In Group 2, GA was administered only during the post-noise exposure period in an effort to determine if GA can rescue hearing following acute trauma. In a subset of animals, GA was administered prior to noise exposure and then daily for the first ten post-exposure days. Complete Freund's adjuvant will be used to deliver the first dose of the agent to determine if GA actions might be potentiated (boosted) when delivered in an emulsified form in a separate group of mice.
An example of findings associated with this experimental design is shown in FIG. 2, in which families of ABR threshold-frequency curves (audiograms) generated by tracking sensitivity according to the “protection” protocol reviewed above in a GA-treated animal (right panel) and a saline-treated control (left panel) that were exposed to noise simultaneously are shown.
With this example, to determine if treatment with GA alone reduces the amount of temporary and permanent hearing loss and/or accelerates the rate of recovery from temporary threshold shift (TTS), groups of mice received GA or saline and were evaluated as described above.

IL-17 = assay: qRT-PCR cytokine expression after noise exposure: IL-17; type: in vivo, mouse; conditions: GA-treated mice, 10 days following noise exposure (Group 1), FIG. 7
Method: as §3, §4

interferon-gamma = assay: qRT-PCR cytokine expression after noise exposure: interferon-gamma; type: in vivo, mouse; conditions: GA-treated mice, 10 days following noise exposure (Group 1), spleen tissues, FIG. 6
Method: as §2

TGF-β = assay: qRT-PCR cytokine expression after noise exposure: TGF-β; type: in vivo, mouse; conditions: GA-treated mice, spleen tissues
Method: as §3, §4

IL-2 = assay: qRT-PCR cytokine expression after noise exposure: IL-2; type: in vivo, mouse; conditions: GA-treated mice, 10 days following noise exposure (Group 1), FIG. 7
Method: as §3, §4

## Glatiramer acetate [GA]
[1]
  Recovery of outer hair cell (OHC) function, DPOAE input-output curves: nearly complete recovery
IL-4
  Expression of anti-inflammatory cytokine IL-4, fold greater than controls: 2.6 fold
TNF-alpha
  TNF-α expression: down-regulated
[2]; GA cohort, control animals approximately 17 dB, FIG. 5
  Total extent of recovery following exposure (cohort): ~25 dB
[2]; GA-treated mice with at least 3.4-fold IL-4 increase, stimulus frequencies within the noise band (8.0, 11.3 and 16.0 kHz), FIG. 9
  Threshold recovery during the first 10 days following exposure relative to saline-treated controls and GA-treated mice below criterion: greater
[2]; GA-treated mice with at least 3.4-fold increase in IL-4 expression (criterion), FIG. 8
  Overall threshold recovery from NIHL relative to saline-treated controls and GA-treated mice below criterion: significantly greater
[2]; P<0.05
  Recovery with GA treatment alone compared with saline controls: significantly enhanced
[2]; one GA-treated mouse, protection protocol, GA 100 mg/kg, frequencies at and immediately above noise centre frequency 11.3 kHz, first 14 days after exposure, FIG. 2, 3
  Recovery from NIHL (ABR threshold-frequency curves): nearly complete
IL-17
  IL-17 expression: down-regulated
interferon-gamma
  Interferon-gamma expression, reduction re controls: 66%
TGF-β
  TGF-β expression: up-regulation
IL-2
  IL-2 expression: down-regulated
